From patent US20250346563A1, “HISTONE DEACETYLASE 6 INHIBITORS AND METHOD FOR TREATING NEUROPATHIC PAIN” (Taipei Medical University, priority 2019, published 2025)

Columns and labels:
[1] = system: rat Taxol-induced neuropathic pain model; experiment: Thermal hyperalgesia in rat Taxol-induced neuropathic pain model; details: for thermal hyperalgesia (heat pain threshold) vs vehicle: p<0.05
Protocol: Gabapentin (100 mg/kg), was administrated via IP injection on Days 14, 21, and 27 (total three doses) by using the same cohort of animals in vehicle control group. Thermal hyperalgesia was assessed prior to Taxol challenge (Day 0; Pre-Taxol) and compound administration (Day 13; Pre-dose) and at 1.5 hours after (second) compound administration on Days 14, 17, 21, 24, and 27 (Post-dose). All values represented mean±SEM in individual groups. One-way ANOVA followed by Dunnett's test was applied for comparison between vehicle control and test article groups. p<0.05 is considered significant.
Animal. Male Sprague-Dawley (SD) rats weighing 220-260 g (at arrival) were provided by BioLasco Taiwan (under Charles River Laboratories Technology Licensee).
Chemotherapy induced neuropathy. Male SD rats weighing 240±20 grams was employed. Taxol (2 mg/kg) was injected IP on Days 1, 3, 5 and 7 with a total cumulative dose of 8 mg/kg (qod×4). During the course of the study, the animals were housed socially under constant temperature, humidity and a 12-hour light-dark cycle.
The reference compound, gabapentin (100 mg/kg, IP), was administrated on Days 14, 21, and 27 (total three doses) by using the same cohort of animals in vehicle control group.
The animals were tested prior to study inclusion for thermal hyperalgesia on Day 13. Thermal hyperalgesia was measured at 1.5 hour after dosing of vehicle or test article on Days 14, 17, 21, 24 and 27 by using the IITC Plantar Test Apparatus (IITC Model-336G; IITC Inc., USA). […] A light beam under the floor was aimed at the plantar surface of the left hind paw. The time was measured automatically when the paw is withdrawn away from the thermal stimulus. A cut-off latency of 23 sec was imposed. The latency to withdrawal was obtained for each rat and defined as the heat pain threshold.
All values represented mean±SEM in individual groups. One-way ANOVA followed by Dunnett's test was applied for comparison between vehicle control and test article groups. p<0.05 is considered significant.

scopolamine-treated rats [2] = experiment: Water maze test, scopolamine-treated rats; format: in vivo; details: by gavage twice daily for seven days; scopolamine 1.5 mg/kg ip
Protocol: (§1) Compound 12, Compound 28, suberanilohydroxamic acid (50 mg/kg) or vehicle was given to rats by gavage twice daily for seven days prior to behavioral experiments. On the day conducting a behavior assessment, rats in all groups except the control group were administered scopolamine (1.5 mg/kg) by intraperitoneal injection for 30 minutes before the assessment, then a water maze test or an elevated plus maze test was performed.

scopolamine-treated rats [3] = experiment: Elevated plus maze test, scopolamine-treated rats; format: in vivo; details: by gavage twice daily for seven days; scopolamine 1.5 mg/kg ip
Protocol: as §1

[4] = system: multiple myeloma cells (RPMI8226, U266, NCI-H929); experiment: Apoptosis in multiple myeloma cells, combined with bortezomib (FACScan, propidium iodide); format: cell-based, human; details: RPMI8226, U266, and NCI-H929, 24 hours
Protocol: A study was conducted to evaluate the effect of a compound of Formula (I) combined with bortezomib in inducing apoptosis in multiple myeloma cells.
To detect cell cycle progression, cells were incubated with or without the indicated agent for 24 hours, washed twice with ice-cold PBS, collected by centrifugation, and fixed in 70% (v/v) ethanol for 2 hours at −20° C. They were subsequently incubated for 30 minutes at room temperature with 0.2 mL of deoxyribonucleic acid (DNA) extraction buffer (0.2 M Na2HPO4 and 0.1 M citric acid buffer, pH 7.8), re-suspended in 1 mL of propidium iodide staining buffer (0.1% Triton X-100, 100 μg/mL of RNase A, and 80 μg/mL of propidium iodide in PBS), incubated at 37° C. for 30 minutes in darkness, sorted by FACScan, and analyzed using CellQuest software (BD Biosciences).
The study was performed according to the protocol reported in Hsieh et al., Cell Death and Disease, 2014 April; 5:e1166.

IL-6 expression = experiment: LPS-induced IL-6 expression in RAW 264.7 cells (ELISA); format: cell-based, mouse; details: 10 μM, LPS 24 hr
Protocol: FIG. 1. Effects of Compound 28 on LPS-induced IL-6 protein expression. The cells were induced with 1 µg/mL LPS and various concentrations of Compound 28 for 24 hr. The levels of IL-6 were determined by ELISA kit.
In this example, we tested that whether Compound 28 can attenuate LPS-induced inflammation.
Cells. The RAW 264.7 cell line derived from mouse macrophage were maintained in Dulbecco's modified Eagle's medium (DMEM; GIBCO, Carlsbad, CA, USA) supplemented with 10% heat-inactivated fetal bovine serum (FBS), 100 μg/mL streptomycin, and 100 IU/mL penicillin.
Measurement of IL-6 expression. RAW cells were cultured onto 6 wells plate. After reaching 80% confluence, cells were pretreated with Compound 28 in 1% FBS medium for 30 min and then incubated with LPS for 24 hr. The levels of IL-6 were determined by IL-6 ELISA kit (BD Bioscience, San Jose, CA, USA). Briefly, 50 μL conditioned medium and 50 μL Assay Diluent were added to each well for 2 hours at room temperature. After washed five times, 100 μL Working Detector was added and incubated for 1 hour. After repetitive washing, 100 μL TMB-Substrate Solution was added for 30 minutes. Finally, 50 μL Stop Solution was added and the optical density was determined using microplate reader set at 450 nm.

## O=C(CCCCCCNC(=O)c1cnc(N(c2ccccc2)c2ccccc2Cl)nc1)NO [ACY241, Citarinostat, reference compound]
[1]; 50 mg/kg PO qd x14, Days 14, 17, 21, and 24
  thermal hyperalgesia (heat pain threshold) vs vehicle: successfully relieved the thermal hyperalgesia

## O=C(NO)c1ccc(CNc2cccc3ncccc23)cc1 [Compound 12, N-hydroxy-4-((quinolin-5-ylamino)methyl)benzamide]
scopolamine-treated rats [2]
  time spent in the correct quadrant (water maze test): markedly reverse this effect
scopolamine-treated rats [3]
  transfer latency time (elevated plus maze test): significantly rescued scopolamine-mediated increase of transfer latency time

## O=C(NO)c1ccc(CNc2cccc3cccnc23)cc1 [Compound 28, N-hydroxy-4-((quinolin-8-ylamino)methyl)benzamide]
[1]; 50 mg/kg PO bid x14, Days 21 and 24
  thermal hyperalgesia (heat pain threshold) vs vehicle: markedly reduced the thermal pain
[1]; 50 mg/kg PO qd x14, Days 14 and 17
  thermal hyperalgesia (heat pain threshold) vs vehicle: significant analgesic effects
[1]; 50 mg/kg PO qd x14, Days 21 and 24
  thermal hyperalgesia (heat pain threshold) vs vehicle: markedly reduced the thermal pain
scopolamine-treated rats [2]
  time spent in the correct quadrant (water maze test): markedly reverse this effect
[4]
  apoptosis induction: synergistically induced apoptosis
scopolamine-treated rats [3]
  transfer latency time (elevated plus maze test): significantly rescued scopolamine-mediated increase of transfer latency time
IL-6 expression
  LPS-induced IL-6 expression: significantly reduce LPS-induced IL-6 expression

## NCC1(CC(=O)O)CCCCC1 [Gabapentin, reference compound]
[1]; 100 mg/kg IP on Days 14, 21, and 27, during the experimental period
  thermal hyperalgesia (heat pain threshold): attenuated the thermal pain
